Laboratory results reported in US20090176714A1, “METHOD OF REDUCING THE EFFECTS OF ABeta AND COMPOSITIONS THEREFORE” (priority 2004, published 2009).

Tested on: hippocampal slice cultures
Experiment: Aβ-induced cell death (EthD-1/calcein AM, % Death) in organotypic hippocampal slice cultures
Format: cell-based, mouse
Method: Pups from C57B6/SJL mice were anaesthetized and decapitated at postnatal day 15. The brain was removed and placed in ice-cold dissecting medium (50% Minimum Essential Medium (Invitrogen, Carlsbad, Calif.), 50% Hank's Balanced Salt Solution (Invitrogen), 25 mM HEPES, and 36 mM glucose). Both hippocampi were dissected under a dissecting microscope and cut at 400 μm on a McIlwain tissue chopper. Slices were separated and placed on filter inserts with a 30 mm diameter and a 0.4 μm filter pore size (Millipore, Billerica, Mass.) held in 6-well culture plates. For the first 3 days, slices were kept in Neurobasal media with B-27 supplement, 1 mM glutamine, and 1% penicillin/streptomycin (Invitrogen). Subsequently, the media was changed every 3 days using media without antibiotics. Organotypic cultures were maintained in a humidified incubator at 37° C. in 5% O2 and 5% CO2 for 14 to 21 days.
Cell death and viability was determined on live slices using the fluorescent probes from Molecular Probes' Live/Dead Kit. After a 40 minute incubation in calcein AM (1:400) and ethidium homodimer (1:1000) in phosphate buffered saline, slices were visualized at 200× magnification with an inverted Nikon Diaphot 200 microscope using the Bio-Rad MRC-1024 Laser Scanning Confocal system (Hercules, Calif.). Random images of the neuronal fields were captured at the emission spectrum of each probe, and Scion Image software (Frederick, Md.) was used to quantify the number of live and dead cells. At least three areas including a neuronal field were imaged and used to determine the percent death for each slice. The percent death was calculated as the number of EthD-1 positive cells divided by the total number of EthD-1 and calcein AM positive cells.
β-amyloid1-42 and reverse Aβ (Aβ42-1) were obtained from BACHEM (Torrance, Calif.). These polypeptides were dissolved in 0.1% NH3OH at 222 μM. For treatments, Aβ was aggregated at 50 μM in Neurobasal media with B-27 supplement and 1 mM glutamine at 37° C. for 24 hours. Then, the slice culture media was removed, and the slices were treated with 1 mL of 25 μM or 50 μM Aβ, reverse Aβ, or vehicle for 24 hours. Human TTR (Calbiochem) or IGF-2 (Peprotech, Rocky Hill, N.J.) was added to slices together with the Aβ treatment at final concentrations of 3 μM (TTR) or 500 nM (IGF-2). sAPPα was prepared as described previously (Mattson et al., Neuron, 10:243-254 (1993)).
Unless otherwise stated, all sAPPα treatments were performed at 1 nM 48 hours prior to the addition of Aβ. Antibodies against TTR (C-20) or IGF-2 (F-20; 4 μg/mL; Santa Cruz) or sAPPα (6E10; 10 μg/mL; Chemicon) were added to slices together with the sAPPα treatment. Goat IgG (4 μg/mL; Santa Cruz) or mouse IgG1 (10 μg/mL; Chemicon) was added as a control. The 10 amino acid fragment of the carboxyl-terminal region of sAPPα (592-601 of APP695; SEVKMDAEFR; SEQ ID NO:1; Sigma) was added according to the same protocol for sAPPα.
SiRNA's were created based on the mouse mRNA sequences using the Ambion Silencer siRNA Construction Kit (Austin, Tex.). Several siRNA's were created by in vitro transcription for each silenced gene. Transfection was performed for 4 hours at 37° C. prior to vehicle or sAPPα treatment using 25 nM siRNA combined with the polyamines in the Ambion siPORT Amine Transfection Agent. Transfections were performed in Neurobasal media with 1 mM glutamine (Invitrogen). The successful mRNA target sequences are as follows, TTR: 5′-[…]-3′ (SEQ ID NO:16) and 5′-[…]-3′ (SEQ ID NO:17); IGF-2: 5′-AA-GGGGATAGAGATGTGAGAG-3′ (SEQ ID NO:18) and 5′-AAATTATGTGGT-AATTCTGCA-3′ (SEQ ID NO:19); IGF-1R: 5′-[…]-3′ (SEQ ID NO:20) and 5′-[…]-3′ (SEQ ID NO:21).
β-amyloid1-42 and reverse Aβ (Aβ42-1) were obtained from BACHEM (Torrance, Calif.). These peptides were dissolved in 0.1% NH3OH at 222 μM. For treatments, Aβ was aggregated at 50 μM in Neurobasal media with B-27 supplement and 1 mM glutamine at 37° C. for 24 hours. […]

[1] = 1 nM 48 hours prior to 25 μM Aβ (24 hours), FIG. 7

| Substance | Percent death compared to treatment with vehicle (25 μM Aβ, 24 hours) | Neurons that lost membrane integrity (EthD-1 positive) / percent death (25 μM or 50 μM Aβ, 24 hours, compared to reverse Aβ) | Protection against Aβ-induced death (% Death) [1] | Protection against Aβ-induced death (% Death, EthD-1 positive cells) (1 nM added 48 hours prior to 25 μM or 50 μM Aβ (24 hours), FIG. 4A) | Protection against Aβ-induced death (% Death) (1 nM 48 h prior to 25 μM Aβ (24 h), FIG. 12A) | Protection against Aβ-induced death (% Death) (1 nM 48 h prior to 25 μM Aβ (24 h), FIG. 12A, listed as tetramer) | Protection against Aβ-induced death (% Death) (48 h prior to 25 μM Aβ (24 h), FIG. 12B, 1 nM, final concentration of 1 mM) | Protection against Aβ-induced death (% Death) (48 h prior to 25 μM Aβ (24 h), FIG. 12B, 1 nM, final concentration of 1 mM, listed as tetramer) |
| --- | --- | --- | --- | --- | --- | --- | --- | --- |
| β-amyloid1-42 [Aβ] | dramatic and significant increase | dramatic increase | – | – | – | – | – | – |
| SEVKMDAEFR | – | – | completely protected | mimics the protective effect of sAPPα | – | – | – | – |
| DAEF [peptide of 4 residues within the 10 residue peptide (residues 597-600)] | – | – | sufficient to protect | – | protects against the Aβ-induced toxicity | completely protected | protects against the Aβ-induced toxicity | completely protected |
